Test results as given in patent publication US20190135755A1, “CRYSTAL POLYMORPHISM OF KCNQ2-5 CHANNEL ACTIVATOR” (ONO PHARMACEUTICAL CO., LTD., priority 2016, published 2019).
Values after ≈ are worked out from the molar mass of the structure shown. Values belong to the compound of their own block, whether it stands above or below them.

How the values were obtained:
[1] = Water vapor adsorption/desorption isotherm measurement; format: physicochemical; conditions: 25° C., relative humidity of 50% RH or more, based on mass when dried (0% RH)
Procedure: (3) Water Vapor Adsorption/Desorption Isotherm Measurement
Device: DVS Intrinsic, manufactured by SMS Co., Ltd.
Change in relative humidity: 0% to 95% (5% STEP)
STEP transition criterion: percent change in weight: 0.002%/min
A change in mass when the humidity was changed in a stepwise manner (relative humidity: from 0% RH to 95% RH) at 25° C. was recorded over time, and an equilibrium mass at each humidity was determined. Subsequently, based on the mass when dried (0% RH), the percent change in mass at each humidity and the hydration number were determined.

[2] = tested on: bladder extracted from rat; assay: Relaxing action on bladder extracted from rat (Magnus test, carbachol contraction); conditions: concentration at which percent change in tension is −20%; carbachol 1 μM contraction; female Wistar rat bladder strip
Procedure: Female Jcl:Wistar rats (CLEA Japan, Inc., body weight at use: 170 to 200 g) were anesthetized by intraperitoneal administration of about 40 mg/kg of pentobarbital (Somnopentyl, Schering Plough Animal Health Corporation), and killed by bloodletting. The bladder was extracted by abdominal incision and immediately thereafter immersed in ice-cooled Krebs buffer (Krebs Ringer bicarbonate buffer (Sigma-Aldlich Co. LLC) supplemented with sodium hydrogen carbonate (final concentration: 15 mM) and calcium chloride (final concentration: 2.5 mM)) saturated with a mixed gas (95% O2, 5% CO2).
The bladder body extracted from each rat was cut into an oblong strip shape (about 10×3 mm), whereby a specimen was prepared on ice. Immediately thereafter, the specimen was suspended in a Magnus tube filled with Krebs buffer (37° C.) bubbled with the mixed gas while applying a tension load of 500 mg thereto. Incidentally, the specimen was prepared within 24 hours after extracting the tissue. […]
The tension (mg) in the extracted bladder was used as an evaluation item. The tension was read using analysis software WAVE THERMO 1000. […] The percent change in tension (%) is calculated according to the following formula. […]
The value at which the percent change in tension (%) was −20% was calculated as IC20 and used as an index of the relaxing action on the extracted bladder.

Human KCNQ2/3 = target: T1, Human KCNQ2/3 (Homo sapiens, UniProt O43525+O43526); assay: Opening action with respect to KCNQ2/3 channel by depolarization stimulation (thallium influx, FLIPR); format: cell-based; conditions: human KCNQ2/3 expressing CHO-DHFR- cells; concentration giving 50% of maximum reaction of retigabine (10 μM); 5 mM potassium and 0.5 mM thallium; read-out: opening action (ECrtg50 value) with respect to the KCNQ2/3 channel
T1 construct: expressed in transfected cells; host or cells: CHO-DHFR- cells
Procedure: Human KCNQ2/3 expression cells (CHO-DHFR-cells) were seeded in each well of a 384-well plate (collagen-coated, black, clear bottom) at 0.5×10^4 cells/50 μL per well and cultured in a MEM ALPHA medium (containing 10 vol % inactivated (56° C., 30 min) fetal bovine serum, 100 IU/mL penicillin, 100 μg/mL streptomycin, and 2 mM L-glutamine) at 37° C. in 5% CO2 for 18 to 24 hours. After the medium in the plate was removed, incubation (room temperature, 60 minutes, shading) was performed in a loading buffer (prepared by the method described in the manual of FluxOR Thallium Detection Kit (Invitrogen, F10016, F10017)). A KCNQ2/3 channel opening action (thallium influx into cells) by depolarization stimulation (5 mM potassium and 0.5 mM thallium) was measured by FLIPR TETRA (Molecular Devices). The compound I was treated 5 minutes before the depolarization stimulation, and the reaction induced by the depolarization stimulation was measured over time for 180 seconds. The channel opening action of the compound I was evaluated based on the change amount of the fluorescence intensity from the time before the depolarization stimulation to the time after the elapse of 180 seconds, and the concentration (ECrtg50) satisfying 50% of the fluorescence intensity change of a maximum reaction (in the treatment at 10 μM) of retigabine under the conditions of this experiment was calculated.

[3] = Evaluation of stability in human liver microsomes; format: in vitro ADME; conditions: 0.5 mg/mL human liver microsomes, NADPH, 37° C., 15 minutes, 5 μmol/L
Procedure: A test compound (a 10 mmol/L DMSO solution, 5 μL) was diluted with a 50% aqueous acetonitrile solution (195 μL), whereby a 0.25 mmol/L solution was prepared.
To a reaction vessel preheated to 37° C., 0.5 mg/mL of human liver microsomes (XenoTech, LLC) and 245 μL of a 0.1 M phosphate buffer solution (pH 7.4) containing NADPH co-factor (BD Biosciences) were added, followed by preincubation for 5 minutes, and thereafter, the above-prepared test compound solution (5 μL) was added thereto to start a reaction (final concentration: 5 μmol/L). Immediately after the start, a 20 μL portion was collected and added to 180 μL of acetonitrile containing an internal standard substance (warfarin) to stop the reaction. A 20 μL portion of this solution was stirred with 180 μL of a 50% aqueous acetonitrile solution on a plate equipped with a deproteinization filter, followed by suction filtration, and the filtrate was used as a standard sample.
After the above-prepared reaction solution was incubated at 37° C. for 15 minutes, a 20 μL portion of the solution was added to 180 μL of cooled acetonitrile (containing warfarin serving as an internal standard substance) to stop the reaction. […]
A residual ratio (%) was calculated as follows. […]

hERG channel = target: T2, hERG channel (Homo sapiens, UniProt Q12809); assay: Evaluation of action on hERG IKr current (patch-clamp); format: cell-based; conditions: HEK293 cells overexpressing hERG, maximum tail current, 10 minutes after application, read-out: 50% hERG channel inhibitory activity
T2 construct: expressed in transfected cells; host or cells: HEK293 cells
Procedure: By using HEK293 cells overexpressing a human ether-a-go-go-related gene (hERG), the maximum tail current of the hERG IKr current induced by redepolarization pulse subsequent to depolarization pulse was measured by a patch-clamp method. The percent change (suppression rate) after 10 minutes from application of a test substance with respect to the maximum tail current before the application of the test substance was calculated (see, Biophysical Journal, vol. 74, pp. 230-241 (1998)).

Solubility test = format: physicochemical; conditions: aqueous buffer, kinetic from dmso stock, Japanese Pharmacopoeia dissolution test second solution (pH 6.8), room temperature, quantification range 5 to 100 μM
Procedure: A calibration curve solution was prepared at 0.1, 0.4, and 2 μM by diluting a test substance (a 10 mM DMSO solution) with acetonitrile and adding acetonitrile containing an internal standard substance (candesartan).
A sample solution was prepared as follows. 5 μL of the compound I (a 10 mM DMSO solution) was added to 495 μL of the Japanese Pharmacopoeia dissolution test second solution (pH: 6.8), followed by stirring at room temperature for 5 hours. Then, the solution was transferred to a solubility filter plate and subjected to suction filtration. The filtrate (20 μL) was diluted with acetonitrile, followed by adding acetonitrile containing an internal standard substance (candesartan).
Each of the calibration curve and sample solutions (5 μL) was injected into LC-MS/MS (Discovery Max, manufactured by Thermo Scientific, Inc.) and subjected to quantification (quantification range: 5 to 100 μM). The solubility in the case where the value equal to or less than the quantification range was obtained was defined as <5 μM, and the solubility in the case where the value equal to or more than the quantification range was obtained was defined as […].

[4] = Chemical stability test of crystal form under storage conditions; format: physicochemical; conditions: all storage conditions, compared with the sample
Procedure: The stability of the crystal form of the present invention was examined under various storage conditions. After storage, the residual ratio (%) of each of the samples stored under the respective conditions with respect to the area percentage of the sample stored at −20° C. was calculated by HPLC. Further, by using a powder X-ray diffraction spectrum, peaks were compared with those of the sample. The appearance was observed by visual inspection and compared with that of the sample.
<Storage Conditions and Sampling Time>
25° C.-60% RH (opened): 3 months
40° C.-75% RH (opened): 3 months
2500 Lux: 20D (shading, transparent)

T1 sequence (O43526 whole entry): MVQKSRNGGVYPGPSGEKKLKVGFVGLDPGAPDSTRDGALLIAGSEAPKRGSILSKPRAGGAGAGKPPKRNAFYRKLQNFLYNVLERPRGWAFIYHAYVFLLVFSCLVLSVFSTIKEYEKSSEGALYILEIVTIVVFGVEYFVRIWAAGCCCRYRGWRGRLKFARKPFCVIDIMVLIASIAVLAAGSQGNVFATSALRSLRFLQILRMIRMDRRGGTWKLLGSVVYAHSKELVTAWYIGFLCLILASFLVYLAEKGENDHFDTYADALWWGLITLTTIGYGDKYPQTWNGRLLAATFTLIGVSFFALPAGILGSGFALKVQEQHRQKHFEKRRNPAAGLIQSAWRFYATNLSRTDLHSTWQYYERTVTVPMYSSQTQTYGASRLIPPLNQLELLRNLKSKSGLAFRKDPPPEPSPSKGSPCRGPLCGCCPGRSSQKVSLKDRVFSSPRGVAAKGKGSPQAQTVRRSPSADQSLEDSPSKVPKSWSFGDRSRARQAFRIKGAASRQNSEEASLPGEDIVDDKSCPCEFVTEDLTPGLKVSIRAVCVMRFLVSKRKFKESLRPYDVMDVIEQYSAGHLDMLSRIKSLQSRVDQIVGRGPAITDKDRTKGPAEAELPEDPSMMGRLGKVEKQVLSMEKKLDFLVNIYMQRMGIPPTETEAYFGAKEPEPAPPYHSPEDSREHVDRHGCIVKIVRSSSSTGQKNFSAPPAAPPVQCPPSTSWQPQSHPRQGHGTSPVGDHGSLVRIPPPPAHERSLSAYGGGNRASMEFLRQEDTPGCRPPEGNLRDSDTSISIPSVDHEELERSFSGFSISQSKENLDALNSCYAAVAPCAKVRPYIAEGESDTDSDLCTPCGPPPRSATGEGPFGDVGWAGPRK
T1 sequence (O43525 whole entry): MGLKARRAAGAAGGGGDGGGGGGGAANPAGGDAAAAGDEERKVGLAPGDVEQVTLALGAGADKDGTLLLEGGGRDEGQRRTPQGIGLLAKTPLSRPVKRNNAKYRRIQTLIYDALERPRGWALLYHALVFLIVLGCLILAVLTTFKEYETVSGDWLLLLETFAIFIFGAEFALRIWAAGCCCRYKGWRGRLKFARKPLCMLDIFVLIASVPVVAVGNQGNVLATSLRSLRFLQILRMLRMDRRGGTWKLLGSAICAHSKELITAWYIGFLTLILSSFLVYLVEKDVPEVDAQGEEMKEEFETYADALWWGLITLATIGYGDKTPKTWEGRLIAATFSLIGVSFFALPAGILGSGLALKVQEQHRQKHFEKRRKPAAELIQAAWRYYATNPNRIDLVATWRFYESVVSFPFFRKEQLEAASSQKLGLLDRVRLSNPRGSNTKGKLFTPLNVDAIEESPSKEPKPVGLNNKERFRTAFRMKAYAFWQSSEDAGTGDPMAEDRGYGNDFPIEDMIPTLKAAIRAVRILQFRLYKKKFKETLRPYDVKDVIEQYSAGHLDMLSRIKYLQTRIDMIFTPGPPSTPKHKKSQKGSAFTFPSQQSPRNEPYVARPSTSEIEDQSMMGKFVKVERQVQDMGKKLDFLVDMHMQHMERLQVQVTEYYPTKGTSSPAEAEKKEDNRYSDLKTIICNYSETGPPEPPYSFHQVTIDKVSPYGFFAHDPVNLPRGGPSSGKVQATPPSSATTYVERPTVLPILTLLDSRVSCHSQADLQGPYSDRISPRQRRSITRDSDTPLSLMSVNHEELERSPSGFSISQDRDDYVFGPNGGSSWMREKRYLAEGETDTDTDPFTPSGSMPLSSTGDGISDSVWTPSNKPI
T2 sequence (Q12809 whole entry): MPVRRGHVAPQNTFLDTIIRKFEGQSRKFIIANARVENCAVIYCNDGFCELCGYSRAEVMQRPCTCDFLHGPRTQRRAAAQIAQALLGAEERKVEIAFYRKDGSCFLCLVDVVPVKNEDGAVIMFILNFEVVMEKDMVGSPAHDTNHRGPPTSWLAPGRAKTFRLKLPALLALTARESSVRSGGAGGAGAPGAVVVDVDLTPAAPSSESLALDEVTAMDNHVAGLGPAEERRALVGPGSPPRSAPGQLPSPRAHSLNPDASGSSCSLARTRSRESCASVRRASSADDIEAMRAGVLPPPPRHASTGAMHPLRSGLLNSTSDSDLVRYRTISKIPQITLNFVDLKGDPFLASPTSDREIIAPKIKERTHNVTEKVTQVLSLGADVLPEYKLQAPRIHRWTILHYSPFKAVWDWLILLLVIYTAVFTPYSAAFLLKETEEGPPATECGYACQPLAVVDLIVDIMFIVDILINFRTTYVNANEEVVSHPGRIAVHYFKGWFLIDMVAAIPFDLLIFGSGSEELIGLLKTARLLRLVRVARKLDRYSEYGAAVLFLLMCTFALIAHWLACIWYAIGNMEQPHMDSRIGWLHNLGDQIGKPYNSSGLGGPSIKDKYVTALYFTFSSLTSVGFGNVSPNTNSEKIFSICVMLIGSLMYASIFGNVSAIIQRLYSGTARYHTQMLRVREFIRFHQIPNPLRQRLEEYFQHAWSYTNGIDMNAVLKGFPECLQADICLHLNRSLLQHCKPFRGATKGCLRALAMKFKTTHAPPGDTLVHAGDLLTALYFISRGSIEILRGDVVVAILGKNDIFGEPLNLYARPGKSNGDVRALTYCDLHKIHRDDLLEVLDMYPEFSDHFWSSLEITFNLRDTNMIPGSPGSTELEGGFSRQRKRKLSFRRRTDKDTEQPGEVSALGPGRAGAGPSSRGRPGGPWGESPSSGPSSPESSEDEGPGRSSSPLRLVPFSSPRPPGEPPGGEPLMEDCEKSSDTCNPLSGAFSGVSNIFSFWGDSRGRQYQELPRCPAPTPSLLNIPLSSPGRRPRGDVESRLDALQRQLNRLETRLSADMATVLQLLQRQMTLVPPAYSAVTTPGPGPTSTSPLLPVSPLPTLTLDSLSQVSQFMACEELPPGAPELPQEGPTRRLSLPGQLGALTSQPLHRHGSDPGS

- percent change in mass [1]: 4%
SMILES: C[C@](O)(c1cc(Cl)c(NC(=O)NCc2ccc(Cl)cn2)c(Cl)c1)C(F)(F)F.O [H crystal, Crystal of hydrate (H crystal) of 1-[(5-chloro-2-pyridinyl)methyl]-3-{2,6-dichloro-4-[(2S)-1,1,1-trifluoro-2-hydroxy-2-propanyl]phenyl}urea]

- EC50 (Human KCNQ2/3): 600 nM
- residual ratio (stability against human liver microsomes) [3]: 87%
- solubility at 5 h (Solubility test): 98 µM (≈ 43.4 µg/mL)
SMILES: C[C@](O)(c1cc(Cl)c(NC(=O)NCc2ccc(Cl)cn2)c(Cl)c1)C(F)(F)F [compound I, 1-[(5-chloro-2-pyridinyl)methyl]-3-{2,6-dichloro-4-[(2S)-1,1,1-trifluoro-2-hydroxy-2-propanyl]phenyl}urea]
- IC20 [2]: 500 nM
- IC50 (hERG channel): > 10000 nM

- appearance after storage (visual inspection) [4]: a change in appearance was not observed
SMILES: C[C@](O)(c1cc(Cl)c(NC(=O)NCc2ccc(Cl)cn2)c(Cl)c1)C(F)(F)F [A crystal, A crystal of 1-[(5-chloro-2-pyridinyl)methyl]-3-{2,6-dichloro-4-[(2S)-1,1,1-trifluoro-2-hydroxy-2-propanyl]phenyl}urea]
- powder X-ray diffraction spectrum after storage [4]: an increase in the number of peaks was not observed

- EC50 (Human KCNQ2/3): > 10000 nM
SMILES: CC(O)(c1ccc(NC(=O)NCc2ccc(C(F)(F)F)cn2)cc1)C(F)(F)F (centres unmarked) [Comparative Example 1, 1-[4-(1,1,1-trifluoro-2-hydroxy-2-propanyl)phenyl]-3-{[5-(trifluoromethyl)-2-pyridinyl]methyl}urea]

- EC50 (Human KCNQ2/3): 200 nM
- solubility at 5 h (Solubility test): < 5 µM
SMILES: O=C(Cc1ccc(F)cc1)Nc1c(Cl)cc(Cl)cc1Br [Comparative Example 2, N-(2-bromo-4,6-dichlorophenyl)-2-(4-fluorophenyl)acetamide, reference compound]
